Patent publication US8951527B2, “Radioprotectants targeting thrombospondin-1 and CD47” (The United States of America, as represented by the …, priority 2008, dated 2015)
Entries after “also recorded” stand apart in the source; their conditions may differ.

How the values were obtained:
HUVEC [1] = test: HUVEC cell viability after irradiation (MTT / CellTiter 96); format: cell-based, human; conditions: for survival / cell death of irradiated HUVEC (MTT): 40 Gy or no radiation, 48 hours post radiation (FIG. 22); for cell viability after graded doses of peptide and radiation: peptide 1 hour before 0, 10, 20, 30, 40 Gray, 72 hours (FIG. 12)
Description: FIG. 11. Radioprotective activities of TSP1 and CD47 antibodies, a CD47 binding peptide from TSP1, and a CD47 morpholino. HUVEC were plated on 96-well plates in standard growth medium. Cells were treated with TSP1 (FIG. 11A) or CD47 (FIG. 11B) monoclonal antibodies (clone A6.1 or B6H12, respectively) and received the indicated doses of radiation 24 hours after addition of the antibodies. Cell (mitochondrial) viability was measured 48 hours post irradiation using an MTT assay. Cells were treated using peptide 7N3 (FIG. 11C) and control peptide 604 (FIG. 11D), subjected to the same experimental conditions, and assayed via MTT. […] Experiments were repeated 3 times and results presented as the mean±SD.
FIG. 12. Peptides 7N3 and C6d are radioprotective to HUVEC in culture. Human umbilical vein endothelial cells (HUVEC) grown in EGM medium in 96-well plates were treated with graded doses of a peptide agent, as indicated. One hour later, cells were exposed to a single dose of gamma radiation (0, 10, 20, 30, and 40 Gray) and allowed to incubate 72 hours at 37° C. Cell viability was determined with the CellTiter 96 AQueous One Solution Cell Proliferation Assay.
(§1) Cell Viability Assay. HUVEC were plated at a density of 5000 cells/well in 96 well plates (Nunc), and were treated 24 hours later with either the indicated doses of a CD47 antibody (B6H12), a TSP1 antibody (A6.1), the CD47-binding peptide 7N3, or control peptide 604. One hour later the cells were exposed to a single dose of gamma radiation (0, 10, 20, 30, and 40 Gy) and allowed to incubate another 72 hours at 37° C. Experiments done with B16E10 melanoma cells in Example 4 were done in a similar manner treating either 1 hour prior to a single dose of radiation (10 Gy) with peptide 7N3 or 48 hours prior with CD47 morpholino. Cell viability was determined using the CellTiter 96 Aqueous One Solution cell proliferation assay (Promega, Madison, Wis.) as per the manufacturer's instructions and absorbance at 490 nm was determined using an MR580 Microelisa AutoReader (Dynatech, Alexandria, Va.). The same assay was performed on HUVEC using either the CD47 or CD36 morpholino, but 48 hours were allowed to pass prior to radiation (0 or 40 Gy) to allow for suppression of the target proteins. Similarly, control experiments were performed using the nitric oxide synthase (NOS) inhibitor L-NAME, a membrane permeable cGMP analogue, 8-Bromo cGMP, or the NO donor DETA/NO.
In an additional experiment to test the effect of radioprotective peptides, human umbilical vein endothelial cells (HUVEC) grown in EGM medium in 96-well plates were treated with graded doses of a peptide agent, as indicated. One hour later, cells were exposed to a single dose of gamma radiation (0, 10, 20, 30, and 40 Gray) and allowed to incubate 72 hours at 37° C. Cell viability was determined with the CellTiter 96 AQueous One Solution Cell Proliferation Assay.

HUVEC [2] = test: HUVEC proliferation post-radiation (BrdU incorporation); format: cell-based, human; conditions: treated 48 hours before 10 Gy, over 1 week (FIG. 14)
Description: FIG. 14. TSP1 and CD47 antibodies or antisense suppression of CD47 maintain proliferation of irradiated HUVEC. HUVEC were plated in 96-well plates in growth medium and treated with CD47 morpholino (FIG. 14A; *p<0.05, #p<0.01) TSP1, or CD47 antibodies (FIG. 14B; *p<0.05, #p<0.01) and exposed to 10 Gy irradiation 48 hours later. Cell proliferation at the indicated times post-radiation was determined by intracellular BrdU incorporation. Experiments were repeated 3 times, and results presented as the mean±SD.
FIG. 15. HUVEC protected by radioprotective agents are both viable and proliferate at a better rate than untreated cells in culture. Proliferation was assessed by quantifying incorporation of bromodeoxyuridine (BrdU) into newly synthesized DNA using a BrdU Cell Proliferation Assay. HUVEC were seeded into 96 well plates for 24 hours at 37° C., then treated with either antibody A6.1 or B6H12 or peptide 7N3. The treated cells were irradiated at 40 Gy 1 hour later. Control and irradiated plates were assayed for BrdU uptake over 96 hours post-radiation. The assay was performed according to the manufacturer's protocol, and the plates were read at 420 nm.
Cell proliferation assay: Proliferation was assessed by quantifying incorporation of bromodeoxyuridine (BrdU) into newly synthesized DNA using a BrdU Cell Proliferation Assay (Calbiochem, La Jolla, Calif.). Primary murine wild type, TSP1, TSP2, and CD47 null lung endothelial cells were seeded into 96 well plates at 5×10^4 cells/well density. After 24 hours incubation at 37° C. treatment groups were irradiated at 40 Gy. Control and irradiated plates were assayed for BrdU uptake over 24 hours starting at 48 to 168 hours post-radiation. The assay was performed according to the manufacturer's protocol, and the plates were read at 420 nm.
Proliferative capacities were also determined in endothelial cells exposed to high doses of radiation of 40 Gy. […] The assay was performed according to the manufacturer's protocol, and the plates were read at 420 nm.

HAVSMC = HAVSMC cell viability after irradiation (CellTiter 96); format: cell-based, human; conditions: greater doses of radiation (FIG. 13)
Description: FIG. 13. Peptide 7N3 is radioprotective to HAVSMC in culture. Human aortic vascular smooth muscle cells (HAVSMC) were also subjected to the CellTiter 96 Aqueous One Solution cell proliferation assay (Promega, Madison, Wis.).
as §1, with “Similarly, control experiments were performed using the nitric oxide synthase (NOS) inhibitor L-NAME, a membrane permeable cGMP analogue, 8-Bromo cGMP, or the NO donor DETA/NO.” left out

B16F10 melanoma cells = test: B16F10 melanoma cell viability after irradiation in vitro; format: cell-based, mouse; conditions: 7N3 1 hour or morpholino 48 hours before 10 Gy, versus untreated cells
Description: FIG. 19. CD47 suppression enhances re-growth delay in irradiated syngeneic B16 melanoma and squamous cell carcinoma tumors but increases radioresistance of B16 cells in vitro. C57BL/6 mice were injected with 1×10^6 B16 mouse melanoma cells into their right hindlimbs. Five days later, the mice were randomized into 4 groups (12 mice in each group) where they either received injections of CD47 morpholino (10 μM) in sterile PBS, PBS, or no injection. The two groups receiving injections were then subjected to radiation (10 Gy) to the effected hindlimb 48 hours later. The other two groups served as controls and consisted of tumor alone or tumor subjected to only the morpholino. Tumors were followed post-radiation for 30 days, measuring their volume every 6 days (FIG. 19A). […] Cell (mitochondrial) viability was measured 48 hours post radiation using the MTT assay.
Cell Viability Assay. […] Cell viability was determined using the CellTiter 96 Aqueous One Solution cell proliferation assay (Promega, Madison, Wis.) as per the manufacturer's instructions and absorbance at 490 nm was determined using an MR580 Microelisa AutoReader (Dynatech, Alexandria, Va.). […]
Irradiation of cells. […] The dose rate at 50 cm from the x-ray source was 242 cGy/minute, as determined by multiple thermo luminescent dosimeter readings.

C57BL/6 wild type mice = test: Hindlimb irradiation (25 Gy), skin reaction / tissue necrosis grading and histology; format: in vivo, mouse; conditions: 10 μM in 750 μl PBS local-regional, 48 hours before 25 Gy, 8 weeks
Description: FIG. 16. CD47 suppression using an antisense morpholino minimizes tissue damage from radiation injury. Age and sex matched C57BL16 wild type mice underwent a one-time treatment of the right hindlimb with either a murine specific CD47 morpholino oligonucleotide (10 μM in 750 μl PBS) or 750 μl of PBS injected local-regionally to the muscle and soft tissues. […] At the end of 8 weeks, there was a considerable amount of alopecia, dry desquamation and early signs of fibrotic contractures within the irradiated hind limbs of mice receiving only PBS. […] The tissue necrosis grading scores for 8 animals are presented as mean±SD (FIG. 16B) and show a similar trend throughout the 8-week observation period.
Skin reaction: Skin reaction following hind limb irradiation was quantified every week following treatment for 8 weeks using a previously described grading system (Flanders et al., Am J Pathol 163:2247-2257, 2003). The grading system consisted of 5 categories: normal, hair loss, erythema, dry desquamation and moist desquamation/ulceration.
Irradiation of mice: Age and sex matched wild type mice underwent local irradiation to the right hindlimb as described in Example 1. Forty-eight hours prior to irradiation, animals received the CD47 morpholino (SEQ ID NO: 4), a control morpholino (SEQ ID NO: 5) (both at 10 μM in […] PBS via intramuscular injection), vehicle, or no treatment to the hind limb. Under 1% isoflurane inhalation anesthesia, the animals were placed in customized Lucite jigs that allow for immobilization and selective irradiation of the right hindlimb. A single radiation dose of 25 Gy was delivered by a Therapax® DXT300 X-ray irradiator (Pantak, Inc., East Haven, Conn.) using 2.0-mm A1 filtration (300 kVp) at a dose rate of 2.53 Gy/min. Care was taken to avoid irradiation of other body parts by using lead shields specifically designed as a part of the jigs. After irradiation, the animals were placed in cages as indicated above and observed weekly. Skin reaction after hind limb irradiation was quantified every week after treatment for 8 weeks using a previously described grading system (Flanders et al., Am J. Pathol 163:2247-2257, 2003). Briefly, tissue necrosis grading system consists of 5 categories: normal, hair loss, erythema, dry desquamation, and moist desquamation/ulceration.
Age and sex matched C57BL16 wild type mice underwent a one-time treatment of the right hindlimb with the CD47 antisense morpholino oligonucleotide (10 μM in 750 μl PBS), a mismatched control morpholino, or vehicle (PBS) injected local-regionally to the muscle and soft tissues.

## NCCN(CCN)/[N+]([O-])=N/O [DETA/NO, reference compound]
HUVEC [1]
  survival / cell death of irradiated HUVEC (MTT): did not confer a significant survival advantage

## Nc1nc2c(nc(Br)n2[C@@H]2O[C@@H]3COP(=O)(O)O[C@H]3[C@H]2O)c(=O)[nH]1 [cell permeable cGMP analog, 8-Bromo cyclic guanine monophosphate, reference compound]
HUVEC [1]
  survival / cell death of irradiated HUVEC (MTT): did not confer a significant survival advantage

## CD36 morpholino: antisense morpholino specific for the TSP1 receptor CD36 (antisense ATGGGCTGTGACCGGAACTGTGGGC; all phosphorodiamidate morpholino (PMO)) [reference compound]
HUVEC [1]; morpholino 48 hours before radiation (FIG. 11E, F)
  cell viability post radiation after morpholino pretreatment: no radioprotection; also recorded: decrease in cellular viability similar to that of untreated cells
HUVEC [2]
  proliferation (BrdU incorporation / DNA synthesis) after 10 Gy: not seen

## FIRGGMYEGKK [compound 604, control peptide, reference compound]
HUVEC [1]
  cell viability after graded doses of peptide and radiation: virtually no protection

## FIRVVMYEGKK [7N3]
HUVEC [1]; antibody or peptide before radiation, 0-40 Gy (FIG. 11A-D)
  cell (mitochondrial) viability post irradiation: enhanced cell survival post-irradiation
HUVEC [1]
  cell viability after graded doses of peptide and radiation: protective effect
HAVSMC
  cell viability after radiation: profound radioprotective protective effect
B16F10 melanoma cells
  cell viability after 10 Gy: mild radioprotective effect

## HIGWKDFTAYRWRLS [C6d, radioprotective peptide]
HUVEC [1]
  cell viability after graded doses of peptide and radiation: protective effect

## control morpholino: mismatched control morpholino from GeneTools (CGTGACAGCCACGACCGACTGCGCA; all phosphorodiamidate morpholino (PMO)) [reference compound]
HUVEC [2]
  proliferation (BrdU incorporation / DNA synthesis) after 10 Gy: not
C57BL/6 wild type mice
  skin reaction / tissue damage of irradiated hindlimb: significant alopecia, dry and wet desquamation, and tissue ulceration with fibrous contracture
